In series [1] the target is T1, soluble guanylate cyclase (sGC) expressed by CHO-K1-Rat sGC monoclonal cell line (Rattus norvegicus, UniProt P19686+P20595).
T1 construct: expressed in transfected cells; host or cells: CHO-K1
T1 sequence (P19686 1-690): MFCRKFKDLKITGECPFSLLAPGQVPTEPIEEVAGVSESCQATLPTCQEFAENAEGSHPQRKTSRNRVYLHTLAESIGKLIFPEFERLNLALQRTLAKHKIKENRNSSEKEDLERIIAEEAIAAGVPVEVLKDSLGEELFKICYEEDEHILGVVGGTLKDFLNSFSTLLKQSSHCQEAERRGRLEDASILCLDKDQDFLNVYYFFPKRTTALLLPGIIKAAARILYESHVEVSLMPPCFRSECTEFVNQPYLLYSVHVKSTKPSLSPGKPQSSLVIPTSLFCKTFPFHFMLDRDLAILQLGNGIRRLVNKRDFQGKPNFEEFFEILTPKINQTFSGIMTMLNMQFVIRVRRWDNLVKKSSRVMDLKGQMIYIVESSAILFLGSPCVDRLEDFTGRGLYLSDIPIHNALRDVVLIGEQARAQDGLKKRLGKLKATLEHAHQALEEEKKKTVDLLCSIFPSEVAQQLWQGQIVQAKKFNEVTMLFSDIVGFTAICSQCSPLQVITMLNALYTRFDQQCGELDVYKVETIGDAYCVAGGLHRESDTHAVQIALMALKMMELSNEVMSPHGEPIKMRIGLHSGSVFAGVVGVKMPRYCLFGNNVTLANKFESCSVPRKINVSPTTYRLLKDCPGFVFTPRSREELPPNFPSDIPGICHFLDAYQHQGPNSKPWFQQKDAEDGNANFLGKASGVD
T1 sequence (P20595 1-619): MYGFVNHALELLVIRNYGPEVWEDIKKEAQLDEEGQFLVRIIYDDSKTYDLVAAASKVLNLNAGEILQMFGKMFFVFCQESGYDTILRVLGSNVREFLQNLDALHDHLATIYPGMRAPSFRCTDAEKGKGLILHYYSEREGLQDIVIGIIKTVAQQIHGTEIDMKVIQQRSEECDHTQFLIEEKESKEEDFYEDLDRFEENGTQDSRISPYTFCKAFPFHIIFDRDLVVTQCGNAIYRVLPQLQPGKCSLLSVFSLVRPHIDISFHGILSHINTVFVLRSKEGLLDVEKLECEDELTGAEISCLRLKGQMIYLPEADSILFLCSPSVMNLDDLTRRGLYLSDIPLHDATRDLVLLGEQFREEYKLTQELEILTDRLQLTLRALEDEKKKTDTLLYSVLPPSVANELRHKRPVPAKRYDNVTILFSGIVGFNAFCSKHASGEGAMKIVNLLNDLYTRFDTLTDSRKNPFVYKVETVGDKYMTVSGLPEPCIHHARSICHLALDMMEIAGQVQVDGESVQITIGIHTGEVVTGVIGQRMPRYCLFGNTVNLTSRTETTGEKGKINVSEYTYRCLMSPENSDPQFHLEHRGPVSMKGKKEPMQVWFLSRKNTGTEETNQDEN
The series is described as follows: Effect on recombinant guanylate cyclase reporter cell line (CHO-K1-Rat sGC, Cisbio cGMP HTRF). It is filed as cell-based. The following applies: activating soluble guanylate cyclase. An excerpt: Transfection of Soluble Guanylate Cyclase (sGC) gene into CHO-K1 cells and selection of cells with stably and highly expressed sGC: Rat sGCα1 and Rat sGCβ1 Genes were synthesized, and then pcDNA3.1(+)-rat sGCα1 and pcDNA3.1/Hygro (+)-rat sGCβ1 plasmid were constructed; the plasmid was co-transfected into CHO-K1 cells, and a positive clone cell line stably expressing CHO-K1-Rat sGC was selected using the Cisbio cGMP HTRF assay kit.
The activity of the compound on the CHO-K1-Rat sGC monoclonal cell line was determined: The CHO-K1-Rat sGC monoclonal cell line was cultured, and used for test operation at degree of fusion of about 70% to 90%. The cells were resuspended in complete medium after TrypLE digestion; the cells were inoculated in a 384-well (low volume tissues culture treated) cell culture plate at a seeding density of 7500/well in 25 μL of complete medium and incubated at 37° C. in 5% CO2 atmosphere for 20 hours; the test compounds were dissolved and dilute with DMSO to give 10 concentration gradients (2× working concentration); 384-well cell culture plates were centrifugated (200 g) for 3 seconds by inversion at RT, medium was removed; The test compounds in each different concentration gradient and corresponding reagent were added into each cell well according to the detection process of Cisbio cGMP HTRF assay kit. The data were collected with Envision HTRF detector and the EC50 value of each compound in activating soluble guanylate cyclase was calculated.

Series [2] is described as follows: Pharmacokinetics in male SD rats after intravenous and oral administration. It is filed as in vivo. The following applies: for F: po 5 mg/kg versus iv 1 mg/kg; for AUC(0-t) / Cmax / Tmax / clearance / half-life / Vd: rat, plasma; for Vd: read-out: Vss. The method, then:
Preparation of test compound solution: The test compound was formulated with 5% dimethylsulfoxide, 5% Solutol HS 15 and 90% physiological saline to give solution, which was used for oral and intravenous administration.
Male SD rats weighing 190-250 g were randomly divided into two groups, each group had three members; one group received test compound at a dose of 1.0 mg/kg by intravenous injection, the other group received test compound at a dose of 2.5 or 5.0 mg/kg by oral. After dosing, blood samples were collected at time points of 0.0833, 0.25, 0.5, 1.0, 2.0, 4.0, 7.0 and 24 h. Standard curve was plotted based on concentrations of the samples in a suitable range, the concentrations of test compounds in plasma samples were determined by using AB SCIEX API4000 LC-MS/MS in MRM mode. Pharmacokinetic parameters were calculated according to drug concentration-time curve using a noncompartmental method by WinNonLin 6.3 software.

Each structure is given as a SMILES string.

As to `COC(=O)N(C)c1c(N)nc(-c2nn(Cc3ccccc3F)c3c(F)cc(F)cc23)nc1N` [Example 2, methyl (4,6-diamino-2-(5,7-difluoro-1-(2-fluorobenzyl)-1H-indazol-3-yl)pyrimidin-5-yl)(methyl)carbamate], the EC50 in series [1] came to 220 nM. This compound also registered a F in series [2] of 138.6%. Also, in series [2] (iv, 1 mg/kg), the AUC(0-t) is 2020 ng·h/mL, the concentration peaked (Cmax) at 680 ng/mL, the time to peak (Tmax) worked out at 0.083 h and the clearance was determined as 6.16 mL/min/kg. In series [2] (iv, 1 mg/kg), the half-life is 3.7 h and the Vd came to 1.88 L/kg. Also, in series [2] (po, 5 mg/kg), the AUC(0-t) stood at 14000 ng·h/mL, the highest level (Cmax) was 1130 ng/mL, the time of peak concentration (Tmax) was found to be 2 h and the half-life was 3.61 h.

Turning to `COC(=O)N(C)c1c(N)nc(-c2nn(Cc3ccccc3F)c3cc(F)ccc23)nc1N` [Example 6, methyl (4,6-diamino-2-(6-fluoro-1-(2-fluorobenzyl)-1H-indazol-3-yl)pyrimidin-5-yl)(methyl)carbamate], the concentration giving a half-maximal response (EC50) in series [1] came to 230 nM. For the same compound, in series [2], the F amounted to 135.3%. In addition, in series [2] (iv, 1 mg/kg), the AUC(0-t) was 2700 ng·h/mL, the highest level (Cmax) was 1310 ng/mL, the Tmax came to 0.083 h and the clearance stood at 6.18 mL/min/kg. Moreover, in series [2] (iv, 1 mg/kg), the half-life is 1.57 h and the Vd was 1.07 L/kg. In addition, in series [2] (po, 5 mg/kg), the AUC(0-t) was 18300 ng·h/mL, the highest level (Cmax) was 2480 ng/mL, the time of peak concentration (Tmax) was 1.33 h and the half-life was 2.98 h.

In the case of `COC(=O)N(C)c1c(N)nc(-c2nn(Cc3ccccc3F)c3c(F)cccc23)nc1N` [Example 11, methyl (4,6-diamino-2-(7-fluoro-1-(2-fluorobenzyl)-1H-indazol-3-yl)pyrimidin-5-yl)(methyl)carbamate], the half-maximal effective concentration (EC50) in series [1] was determined as 82 nM. In series [2], this compound came in with an F of 107.3%. Further, in series [2] (iv, 1 mg/kg), the exposure AUC(0-t) was determined as 1220 ng·h/mL, the maximum concentration (Cmax) was 834 ng/mL, the Tmax was 0.083 h and the clearance came to 13.4 mL/min/kg. For the same compound, in series [2] (iv, 1 mg/kg), the half-life was 1.37 h and the Vd stood at 1.35 L/kg. Further, in series [2] (po, 5 mg/kg), the exposure AUC(0-t) was determined as 6580 ng·h/mL, the peak level (Cmax) was 1080 ng/mL, the Tmax was 1.67 h and the half-life was 2.45 h.

As for `Nc1nc(-c2nn(Cc3ccccc3F)c3c(F)cccc23)nc(N)c1N1CCCS1(=O)=O` [Example 13, 2-(4,6-diamino-2-(7-fluoro-1-(2-fluorobenzyl)-1H-indazol-3-yl)pyrimidin-5-yl)isothiazolidine 1,1-dioxide], the half-maximal effective concentration (EC50) in series [1] turned out to be 36 nM. In addition, the F in series [2] is 109.8%. Also, in series [2] (iv, 1 mg/kg), the AUC(0-t) was 921 ng·h/mL, the Cmax was 778 ng/mL, the Tmax came out at 0.083 h and the half-life was 0.916 h. Also, the Vd in series [2] (iv, 1 mg/kg) worked out at 6.38 L/kg. For the same compound, in series [2] (po, 5 mg/kg), the AUC(0-t) was 5010 ng·h/mL, the maximum concentration (Cmax) came out at 1170 ng/mL, the Tmax was found to be 1.67 h and the half-life is 1.57 h.

For the compound `Nc1nc(-c2nn(Cc3ccccc3F)c3c(F)cccc23)nc(N)c1N1CCOC1=O` [Example 15, 3-(4,6-diamino-2-(7-fluoro-1-(2-fluorobenzyl)-1H-indazol-3-yl)pyrimidin-5-yl)oxazolidin-2-one], in series [1], the half-maximal effective concentration (EC50) was determined as 300 nM. In series [2], this compound registered an F of 86%. Besides, in series [2] (iv, 1 mg/kg), the AUC(0-t) was 2060 ng·h/mL, the Cmax stood at 981 ng/mL, the Tmax is 0.083 h and the clearance was found to be 7.91 mL/min/kg. In series [2] (iv, 1 mg/kg), the half-life is 5.56 h and the Vd was determined as 2.03 L/kg. In series [2] (po, 5 mg/kg), the AUC(0-t) is 8860 ng·h/mL, the highest level (Cmax) was 768 ng/mL, the Tmax was 3 h and the half-life is 3.13 h.

On to `OCCNc1nc(-c2nn(Cc3ccccc3F)c3c(F)cccc23)ncc1F` [Example 60, 2-((5-fluoro-2-(7-fluoro-1-(2-fluorobenzyl)-1H-indazol-3-yl)pyrimidin-4-yl)amino)ethanol], for which, in series [1], the concentration for a half-maximal effect (EC50) worked out at 120 nM.

Consider `OCCN1CCN(c2nc(-c3nn(Cc4ccccc4F)c4c(F)cccc34)ncc2F)CC1` [Example 62, 2-(4-(5-fluoro-2-(7-fluoro-1-(2-fluorobenzyl)-1H-indazol-3-yl)pyrimidin-4-yl)piperazin-1-yl)ethanol], for which the EC50 in series [1] was 75 nM.

For the origin of these results see patent US11242335B2, “Fluorine-substituted indazole compounds and uses thereof” (SUNSHINE LAKE PHARMA CO., LTD., priority 2017, dated 2022).
